Measurements as given in US10774064B2 (Cadent Therapeutics, Inc., priority 2016, dated 2020).

Molecular target: T1, small-conductance Ca2+-activated K+ channels (SK channels, subtype 2) (Homo sapiens, UniProt Q9H2S1)
T1 construct: expressed in transfected cells; host or cells: HEK293
Test: whole-cell patch-clamp of ionic current through SK2 channels in HEK293 cells (SC100)
Format: cell-based
Conditions: whole-cell patch-clamp, HEK293 cells expressing SK2 channels; concentration that increases the basal current by 100%
Procedure, shortened: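 SC100, the concentration doubling basal current (a 100% increase), was taken from SK2 currents recorded by whole-cell patch-clamp in SK2-expressing HEK293 cells.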

Compound	SC100 (μM)
Cc1ccn(-c2nc(NC3CCC(F)CC3)cc(N3CCOCC3)n2)n1 (stereo not drawn) [NSSy5662]	+ (+ means >1 uM)
Cc1ccn(-c2nc(NC3CC=CCC3)cc(N3CCOCC3)n2)n1 (stereo not drawn) [NSSy5663]	+ (+ means >1 uM)
Cc1csc(-c2nc(NC3CCC(F)(F)CC3)cc(N3CC4(COC4)C3)n2)n1 [NSSy5664]	++ (++ means 200 nM-1000 nM)
Cc1ccn(-c2nc(NC3CC=CCC3)cc(N3CC4(COC4)C3)n2)n1 (stereo not drawn) [NSSy5670]	++ (++ means 200 nM-1000 nM)
COC(=O)N(C)C1CC(Oc2cc(NC3CCC(F)(F)CC3)nc(-n3ccc(C)n3)n2)C1 (stereo not drawn) [NSSy5672, methyl (3-((6-((4,4-difluorocyclohexyl)amino)-2-(3-methyl-1H-pyrazol-1-yl)pyrimidin-4-yl)oxy)cyclobutyl)(methyl)carbamate]	++ (++ means 200 nM-1000 nM)
Cc1csc(-c2cc(N3CCN(C)C(=O)C3)cc(NC3CCC(F)(F)CC3)n2)n1 [NSSy5674, 4-(2-((4,4-difluorocyclohexyl)amino)-6-(4-methylthiazol-2-yl)pyridin-4-yl)-1-methylpiperazin-2-one]	+++ (+++ means <200 nM)
Cc1csc(-c2cc(N3CC4(COC4)C3)cc(NC3CCC(F)(F)CC3)n2)n1 [NSSy5675]	+++ (+++ means <200 nM)
Cc1ccn(-c2cc(C(O)c3cccnc3)cc(NC3CCC(F)(F)CC3)n2)n1 (stereo not drawn) [NSSy5676, (2-((4,4-difluorocyclohexyl)amino)-6-(3-methyl-1H-pyrazol-1-yl)pyridin-4-yl)(pyridin-3-yl)methanol]	+++ (+++ means <200 nM)
Cc1csc(-c2cc(N3CC(N(C)C)C3)cc(NC3CCC(F)(F)CC3)n2)n1 [NSSy5677]	++ (++ means 200 nM-1000 nM)
Cc1csc(-c2cc(OCc3cn(C)nn3)cc(NC3CCC(F)(F)CC3)n2)n1 [NSSy5680]	+++ (+++ means <200 nM)
Cc1ccn(-c2cc(OCc3nnc(C)o3)cc(NC3CCC(F)(F)CC3)n2)n1 [NSSy5681]	+ (+ means >1 uM)
Cc1csc(-c2cc(OCc3ncn(C)n3)cc(NC3CCC(F)(F)CC3)n2)n1 [NSSy5686]	++ (++ means 200 nM-1000 nM)
Cc1csc(-c2cc(N3CC(C)(O)C3)cc(NC3CCC(F)(F)CC3)n2)n1 [NSSy5687]	++ (++ means 200 nM-1000 nM)
Cc1csc(-c2cc(N3CCOCC3)cc(NC3CCC(F)CC3)n2)n1 (stereo not drawn) [NSSy5688]	++ (++ means 200 nM-1000 nM)
Cc1csc(-c2nc(NC3CCC(F)(F)CC3)cc(OCc3ncnn3C)n2)n1 [NSSy5689]	+ (+ means >1 uM)
Cc1csc(-c2nc(NC3CCC(F)(F)CC3)cc(OCc3ncn(C)n3)n2)n1 [NSSy5690]	++ (++ means 200 nM-1000 nM)
Cc1ccn(-c2nc(NC3CCC(F)CC3)cc(N3CC4(COC4)C3)n2)n1 (stereo not drawn) [NSSy5691]	+ (+ means >1 uM)
Cc1csc(-c2cc(OCc3nnc(C)o3)cc(NC3CCC(F)(F)CC3)n2)n1 [NSSy5694]	+++ (+++ means <200 nM)
Cc1csc(-c2cc(OCc3ncnn3C)cc(NC3CCC(F)(F)CC3)n2)n1 [NSSy5695]	++ (++ means 200 nM-1000 nM)
Cc1csc(-c2nc(NC3CCC(F)CC3)cc(N3CCOCC3)n2)n1 (stereo not drawn) [NSSy5699, N-(4-fluorocyclohexyl)-2-(4-methylthiazol-2-yl)-6-morpholinopyrimidin-4-amine]	+ (+ means >1 uM)
Cc1csc(-c2nc(NC3CC=CCC3)cc(N3CCOCC3)n2)n1 (stereo not drawn) [NSSy5703, N-(cyclohex-3-en-1-yl)-2-(4-methylthiazol-2-yl)-6-morpholinopyrimidin-4-amine]	+ (+ means >1 uM)
Cc1csc(-c2nc(NC3CCC(F)CC3)cc(OC3CN(C(=O)C(C)C)C3)n2)n1 (stereo not drawn) [NSSy5709]	++ (++ means 200 nM-1000 nM)
COC(=O)N1CC(Oc2cc(NC3CCC(F)CC3)nc(-c3nc(C)cs3)n2)C1 (stereo not drawn) [NSSy5710]	++ (++ means 200 nM-1000 nM)
CN(C)C1CN(c2cc(Nc3ccc(F)cc3)nc(-n3ccc(CF)n3)c2)C1 [NSSy5713]	+ (+ means >1 uM)
FCc1csc(-c2nc(NC3CCC(F)(F)CC3)cc(N3CC4(COC4)C3)n2)n1 [NSSy5715, N-(4,4-difluorocyclohexyl)-2-(4-(fluoromethyl)thiazol-2-yl)-6-(2-oxa-6-azaspiro[3.3]heptan-6-yl)pyrimidin-4-amine]	++ (++ means 200 nM-1000 nM)
Cc1csc(-c2cc(OCc3cnnn3C)cc(NC3CCC(F)(F)CC3)n2)n1 [NSSy5717]	+++ (+++ means <200 nM)
Cc1ccn(-c2cc(N3CC(C)(O)C3)cc(NC3CCC(F)(F)CC3)n2)n1 [NSSy5721]	++ (++ means 200 nM-1000 nM)

Compound	SC100 (μM)
CCC(=O)N1CC(Oc2cc(NC3CCC(F)(F)CC3)nc(-c3nc(C)cs3)n2)C1 [NSSy5726]	++ (++ means 200 nM-1000 nM)
COC(=O)N(C)C1CC(Oc2cc(NC3CCC(F)(F)CC3)nc(-c3nc(C)cs3)n2)C1 (stereo not drawn) [NSSy5730]	++ (++ means 200 nM-1000 nM)
Cc1ccn(-c2cc(OCc3ncnn3C)cc(NC3CCC(F)(F)CC3)n2)n1 [NSSy5737]	++ (++ means 200 nM-1000 nM)
Cc1csc(-c2nc(NC3CCC(F)(F)CC3)cc(OC3CC(C)(O)C3)n2)n1 (stereo not drawn) [NSSy5740]	++ (++ means 200 nM-1000 nM)
COC(=O)N1CC(Oc2cc(NC3CCC(F)CC3)nc(-n3ccc(C)n3)n2)C1 (stereo not drawn) [NSSy5741]	+ (+ means >1 uM)
Cc1ccn(-c2cc(N3CCOCC3)cc(NC3CC=CCC3)n2)n1 (stereo not drawn) [NSSy5759, N-(cyclohex-3-en-1-yl)-6-(3-methyl-1H-pyrazol-1-yl)-4-morpholino pyridin-2-amine]	++ (++ means 200 nM-1000 nM)
Cc1ccn(-c2nc(NC3CC=CCC3)cc(OC3CN(C(=O)C(C)C)C3)n2)n1 (stereo not drawn) [NSSy5762]	++ (++ means 200 nM-1000 nM)
Cc1ccn(-c2cc(N3CC(N(C)C)C3)cc(NC3CCC(F)(F)CC3)n2)n1 [NSSy5763]	++ (++ means 200 nM-1000 nM)
Cc1ccn(-c2nc(NC3CCC(F)CC3)cc(OC3CN(C(=O)C(C)C)C3)n2)n1 (stereo not drawn) [NSSy5765]	++ (++ means 200 nM-1000 nM)
Cc1csc(-c2nc(NC3CCC(F)(F)CC3)cc(N3CCN4C(=O)OCC4C3)n2)n1 (stereo not drawn) [NSSy5774]	++ (++ means 200 nM-1000 nM)
COCc1cc(NC2CCC(F)(F)CC2)nc(-c2nc(C)cs2)n1 [NSSy5779, N-(4,4-difluorocyclohexyl)-6-(methoxymethyl)-2-(4-methylthiazol-2-yl)pyrimidin-4-amine]	++ (++ means 200 nM-1000 nM)
COC(=O)N1CC(Oc2cc(NC3CC=CCC3)nc(-n3ccc(C)n3)n2)C1 (stereo not drawn) [NSSy5786]	++ (++ means 200 nM-1000 nM)
Cc1csc(-c2nc(NC3CCC(F)(F)CC3)cc(N3CCC(C4COC4)CC3)n2)n1 [NSSy5787]	++ (++ means 200 nM-1000 nM)
COCC1CN(c2cc(NC3CCC(F)(F)CC3)nc(-c3nc(C)cs3)n2)CCO1 (stereo not drawn) [NSSy5789]	+++ (+++ means <200 nM)
Cc1csc(-c2nc(NC3CCC(F)(F)CC3)cc(N3CCN(C4COC4)CC3)n2)n1 [NSSy5792]	++ (++ means 200 nM-1000 nM)
COC[C@@H]1CN(c2cc(NC3CCC(F)(F)CC3)nc(-c3nc(C)cs3)n2)CCO1 [NSSy5795]	++ (++ means 200 nM-1000 nM)
COC[C@H]1CN(c2cc(NC3CCC(F)(F)CC3)nc(-c3nc(C)cs3)n2)CCO1 [NSSy5796]	+++ (+++ means <200 nM)
COCC1CN(c2cc(NC3CCC(F)(F)CC3)nc(-c3nc(C)cs3)c2)CCO1 (stereo not drawn) [NSSy5807]	+++ (+++ means <200 nM)
Cc1cc(C)n(-c2cc3c(ncn3C3COC3)c(NC3CCC(F)(F)CC3)n2)n1 [NSSy5808, N-(4,4-difluorocyclohexyl)-6-(3,5-dimethyl-1H-pyrazol-1-yl)-1-(oxetan-3-yl)-1H-imidazo[4,5-c]pyridin-4-amine]	++ (++ means 200 nM-1000 nM)
Cc1csc(-c2cc(N3CCC(C4COC4)CC3)cc(NC3CCC(F)(F)CC3)n2)n1 [NSSy5815]	++ (++ means 200 nM-1000 nM)
COCc1cc(NC2CCC(F)(F)CC2)nc(-c2nc(C)co2)n1 [NSSy5818, N-(4,4-difluorocyclohexyl)-6-(methoxymethyl)-2-(4-methyloxazol-2-yl)pyrimidin-4-amine]	+ (+ means >1 uM)
Cc1csc(-c2cc(N3CCN(C4COC4)CC3)cc(NC3CCC(F)(F)CC3)n2)n1 [NSSy5819]	++ (++ means 200 nM-1000 nM)
Cc1csc(-c2cc(N3CCN4C(=O)OCC4C3)cc(NC3CCC(F)(F)CC3)n2)n1 (stereo not drawn) [NSSy5824]	+++ (+++ means <200 nM)
Cc1ccn(-c2cc(C#N)cc(NC3CCC(F)(F)CC3)n2)n1 [NSSy5826]	++ (++ means 200 nM-1000 nM)
Cc1ccn(-c2cc(CO)cc(NC3CCC(F)(F)CC3)n2)n1 [NSSy5827]	++ (++ means 200 nM-1000 nM)
Cc1ccc(OCc2cc(NC3CCC(F)(F)CC3)nc(-n3ccc(C)n3)c2)nn1 [NSSy5828, N-(4,4-difluorocyclohexyl)-6-(3-methyl-1H-pyrazol-1-yl)-4-(((6-methylpyridazin-3-yl)oxy)methyl)pyridin-2-amine]	+++ (+++ means <200 nM)
Cc1ccn(-c2cc(CF)cc(NC3CCC(F)(F)CC3)n2)n1 [NSSy5829, N-(4,4-difluorocyclohexyl)-4-(fluoromethyl)-6-(3-methyl-1H-pyrazol-1-yl)pyridin-2-amine]	++ (++ means 200 nM-1000 nM)
